Measured values from patent US4670461A, “Formaldehyde derivatives of mitindomide” (priority 1984, dated 1987).
Counter-ions that a name gives are not always drawn.

Legend:
P388 = experiment: IP P388, Days 1-9 (NCI murine test system); format: in vivo; conditions: IP P388, Days 1-9, dose 68.8
Procedure: Anti-tumor or anti-neoplastic activity of the novel derivatives of the present invention is determined by using the murine test system for screening anti-cancer compounds as standardized by the National Cancer Institute, Bethesda, Md., U.S.A., and described in Cancer Chemotherapy Reports, 3 (2) 1-103 (1972) which publication is incorporated herein by reference.
It is noted that although the intraperitoneal mode of administration of the novel derivatives is preferred, other modes of parenteral administration, e.g. subcutaneous, intravenous, etc., are, of course, possible and included within the purview of this invention. Similarly, although water has been used as a vehicle for the administration of the compounds of the present invention, other pharmaceutically acceptable vehicles, e.g. saline, buffers, and other aqueous media may also be used for the administration of these compounds together with adjuvants, agents or additives commonly employed in the preparation of pharmaceutical compositions. Examples of such agents, additives and adjuvants that may be employed are listed in Instruction 14, Screening Data Summary Interpretation and Outline of Clinical Screen. Drug Evaluation Branch, NCI. and are incorporated herein by reference.

L1210 leukemia [1] = experiment: S.C. implanted L1210 leukemia in mice (CD2F1); format: in vivo
Text: ^a Experimental formulation of mitindomide was used (NaOH + manitol).

L1210 leukemia [2] = experiment: IP implanted L1210 leukemia in mice (CD2F1); format: in vivo
Water solubility = format: physicochemical; conditions: water
[3] = background section; cited from earlier work
[4] = tested on: certain experimental tumor systems; conditions: Pettit et al, Can. J. Chem. 61, 2291-2294 (1983); cited from earlier work
[5] = 24.8 mg/kg ip days 1-9, Expt. 1
[6] = 24.8 mg/kg ip days 1-9, Expt. 2
[7] = 41.3 mg/kg ip days 1-9, Expt. 1
[8] = 41.3 mg/kg ip days 1-9, Expt. 2
[9] = 68.8 mg/kg ip days 1-9, Expt. 1
[10] = 68.8 mg/kg ip days 1-9, Expt. 2
[11] = 114.7 mg/kg ip days 1-9, Expt. 1
[12] = 24.8 mg/kg IP days 1-9, Expt. 1
[13] = 24.8 mg/kg IP days 1-9, Expt. 2
[14] = 24.8 mg/kg IP days 1-9, Expt. 3
[15] = 41.3 mg/kg IP days 1-9, Expt. 1
[16] = 41.3 mg/kg IP days 1-9, Expt. 2
[17] = 41.3 mg/kg IP days 1-9, Expt. 3
[18] = 68.8 mg/kg IP days 1-9, Expt. 1
[19] = 68.8 mg/kg IP days 1-9, Expt. 2
[20] = 68.8 mg/kg IP days 1-9, Expt. 3
[21] = 114.7 mg/kg IP days 1-9, Expt. 1
[22] = 114.7 mg/kg IP days 1-9, Expt. 2
[23] = 114.7 mg/kg IP days 1-9, Expt. 3
[24] = 18.0 mg/kg ip days 1-9, Expt. 1
[25] = 18.0 mg/kg ip days 1-9, Expt. 2
[26] = 30.0 mg/kg ip days 1-9, Expt. 1
[27] = 30.0 mg/kg ip days 1-9, Expt. 2
[28] = 50.0 mg/kg ip days 1-9, Expt. 1
[29] = 50.0 mg/kg ip days 1-9, Expt. 2
[30] = 83.3 mg/kg ip days 1-9, Expt. 1
[31] = 18.0 mg/kg IP days 1-9, Expt. 1
[32] = 18.0 mg/kg IP days 1-9, Expt. 2
[33] = 18.0 mg/kg IP days 1-9, Expt. 3
[34] = 30.0 mg/kg IP days 1-9, Expt. 1
[35] = 30.0 mg/kg IP days 1-9, Expt. 2
[36] = 30.0 mg/kg IP days 1-9, Expt. 3
[37] = 50.0 mg/kg IP days 1-9, Expt. 1
[38] = 50.0 mg/kg IP days 1-9, Expt. 2
[39] = 50.0 mg/kg IP days 1-9, Expt. 3
[40] = 83.3 mg/kg IP days 1-9, Expt. 1
[41] = 83.3 mg/kg IP days 1-9, Expt. 2
[42] = 83.3 mg/kg IP days 1-9, Expt. 3

Structure (SMILES): CN1CCN(CN2C(=O)C3C4C=CC(C3C2=O)C2C3C(=O)N(CN5CCN(C)CC5)C(=O)C3C42)CC1 (stereo not shown) [Example 4, 4,8-Ethenopyrrolo[3',4':3,4]cyclobut[1,2-f]isoindole-1,3,5,7(2H,6H)-tetrone,3a,3b,4,4a,7a,8,8a,8b-octahydro-2,6-bis(N-methylpiperazinomethyl)di-hydrochloride]
- T/C (P388): 172
- ILS (L1210 leukemia [1]; [5]): 18%
- MST (L1210 leukemia [1]; [5]): 9.7 days
- Wt. Change (L1210 leukemia [1]; [5]): -0.2 g
- ILS (L1210 leukemia [1]; [6]): 12%
- MST (L1210 leukemia [1]; [6]): 12.0 days
- Wt. Change (L1210 leukemia [1]; [6]): 0.3 g
- ILS (L1210 leukemia [1]; [7]): 50%
- MST (L1210 leukemia [1]; [7]): 12.3 days
- Wt. Change (L1210 leukemia [1]; [7]): -1.6 g
- ILS (L1210 leukemia [1]; [8]): 21%
- MST (L1210 leukemia [1]; [8]): 13.0 days
- Wt. Change (L1210 leukemia [1]; [8]): -1.5 g
- ILS (L1210 leukemia [1]; [9]): 74%
- MST (L1210 leukemia [1]; [9]): 14.3 days
- Wt. Change (L1210 leukemia [1]; [9]): -4.2 g
- ILS (L1210 leukemia [1]; [10]): 58%
- MST (L1210 leukemia [1]; [10]): 17.0 days
- Wt. Change (L1210 leukemia [1]; [10]): -2.9 g
- ILS (L1210 leukemia [1]; [11]): 135%
- MST (L1210 leukemia [1]; [11]): 19.3 days
- Wt. Change (L1210 leukemia [1]; [11]): -4.7 g
- Wt. Change (L1210 leukemia [1]; 114.7 mg/kg ip days 1-9, Expt. 2): -4.0 g
- Wt. Change (L1210 leukemia [1]; 191.2 mg/kg ip days 1-9, Expt. 2): -6.6 g
- ILS (L1210 leukemia [2]; [12]): 2%
- MST (L1210 leukemia [2]; [12]): 8.9 days
- Wt. Change (L1210 leukemia [2]; [12]): 2.5 g
- ILS (L1210 leukemia [2]; [13]): 5%
- MST (L1210 leukemia [2]; [13]): 8.4 days
- Wt. Change (L1210 leukemia [2]; [13]): 0.8 g
- ILS (L1210 leukemia [2]; [14]): 9%
- MST (L1210 leukemia [2]; [14]): 9.0 days
- Wt. Change (L1210 leukemia [2]; [14]): 0.3 g
- ILS (L1210 leukemia [2]; [15]): 24%
- MST (L1210 leukemia [2]; [15]): 10.8 days
- Wt. Change (L1210 leukemia [2]; [15]): 1.4 g
- ILS (L1210 leukemia [2]; [16]): 47%
- MST (L1210 leukemia [2]; [16]): 11.8 days
- Wt. Change (L1210 leukemia [2]; [16]): -2.6 g
- ILS (L1210 leukemia [2]; [17]): 34%
- MST (L1210 leukemia [2]; [17]): 11.0 days
- Wt. Change (L1210 leukemia [2]; [17]): -1.5 g
- ILS (L1210 leukemia [2]; [18]): 83%
- MST (L1210 leukemia [2]; [18]): 16.0 days
- Wt. Change (L1210 leukemia [2]; [18]): -1.7 g
- ILS (L1210 leukemia [2]; [19]): 78%
- MST (L1210 leukemia [2]; [19]): 14.3 days
- Wt. Change (L1210 leukemia [2]; [19]): -4.1 g
- ILS (L1210 leukemia [2]; [20]): 119%
- MST (L1210 leukemia [2]; [20]): 18.0 days
- Wt. Change (L1210 leukemia [2]; [20]): -3.2 g
- ILS (L1210 leukemia [2]; [21]): 3%
- MST (L1210 leukemia [2]; [21]): 9.0 days
- Wt. Change (L1210 leukemia [2]; [21]): -2.6 g
- ILS (L1210 leukemia [2]; [22]): 110%
- MST (L1210 leukemia [2]; [22]): 16.8 days
- Wt. Change (L1210 leukemia [2]; [22]): -5.3 g
- ILS (L1210 leukemia [2]; [23]): 143%
- MST (L1210 leukemia [2]; [23]): 20.0 days
- Wt. Change (L1210 leukemia [2]; [23]): -4.6 g
- Wt. Change (L1210 leukemia [2]; 191.2 mg/kg IP days 1-9, Expt. 3): -7.1 g
- H2O Sol. % (g per 100 ml H2O) (Water solubility): 10 % (g per 100 ml H2O)

Structure (SMILES): O=C1NC(=O)[C@H]2[C@H]3C=C[C@@H]([C@@H]12)[C@@H]1[C@H]2C(=O)NC(=O)[C@H]2[C@H]31 [Mitindomide, 4,8-Ethenopyrrolo[3',4':3,4]cyclobut[1,2-f]-isoindole-1,3,5,7(2H,6H) tetrone, octahydro]
- ILS (L1210 leukemia [1]; [24]): 21%
- MST (L1210 leukemia [1]; [24]): 10.0 days
- Wt. Change (L1210 leukemia [1]; [24]): 0.0 g
- ILS (L1210 leukemia [1]; [25]): 12%
- MST (L1210 leukemia [1]; [25]): 12.0 days
- Wt. Change (L1210 leukemia [1]; [25]): -0.1 g
- ILS (L1210 leukemia [1]; [26]): 50%
- MST (L1210 leukemia [1]; [26]): 12.3 days
- Wt. Change (L1210 leukemia [1]; [26]): -3.8 g
- ILS (L1210 leukemia [1]; [27]): 42%
- MST (L1210 leukemia [1]; [27]): 15.3 days
- Wt. Change (L1210 leukemia [1]; [27]): -1.6 g
- ILS (L1210 leukemia [1]; [28]): 92%
- MST (L1210 leukemia [1]; [28]): 15.8 days
- Wt. Change (L1210 leukemia [1]; [28]): -4.3 g
- ILS (L1210 leukemia [1]; [29]): 136%
- MST (L1210 leukemia [1]; [29]): 25.3 days
- Wt. Change (L1210 leukemia [1]; [29]): -4.2 g
- ILS (L1210 leukemia [1]; [30]): 6%
- MST (L1210 leukemia [1]; [30]): 8.7 days
- Wt. Change (L1210 leukemia [1]; [30]): -5.6 g
- Wt. Change (L1210 leukemia [1]; 83.3 mg/kg ip days 1-9, Expt. 2): -5.6 g
- ILS (L1210 leukemia [2]; [31]): 3%
- MST (L1210 leukemia [2]; [31]): 9.0 days
- Wt. Change (L1210 leukemia [2]; [31]): 2.3 g
- ILS (L1210 leukemia [2]; [32]): 10%
- MST (L1210 leukemia [2]; [32]): 8.8 days
- Wt. Change (L1210 leukemia [2]; [32]): -0.7 g
- ILS (L1210 leukemia [2]; [33]): 13%
- MST (L1210 leukemia [2]; [33]): 9.3 days
- Wt. Change (L1210 leukemia [2]; [33]): 0.3 g
- ILS (L1210 leukemia [2]; [34]): 49%
- MST (L1210 leukemia [2]; [34]): 13.0 days
- Wt. Change (L1210 leukemia [2]; [34]): 1.2 g
- ILS (L1210 leukemia [2]; [35]): 66%
- MST (L1210 leukemia [2]; [35]): 13.3 days
- Wt. Change (L1210 leukemia [2]; [35]): -3.1 g
- ILS (L1210 leukemia [2]; [36]): 86%
- MST (L1210 leukemia [2]; [36]): 15.3 days
- Wt. Change (L1210 leukemia [2]; [36]): -2.2 g
- ILS (L1210 leukemia [2]; [37]): 60%
- MST (L1210 leukemia [2]; [37]): 14.0 days
- Wt. Change (L1210 leukemia [2]; [37]): 0.2 g
- ILS (L1210 leukemia [2]; [38]): 103%
- MST (L1210 leukemia [2]; [38]): 16.3 days
- Wt. Change (L1210 leukemia [2]; [38]): -3.9 g
- ILS (L1210 leukemia [2]; [39]): 156%
- MST (L1210 leukemia [2]; [39]): 21.0 days
- Wt. Change (L1210 leukemia [2]; [39]): -2.8 g
- ILS (L1210 leukemia [2]; [40]): 6%
- MST (L1210 leukemia [2]; [40]): 9.3 days
- Wt. Change (L1210 leukemia [2]; [40]): -2.5 g
- ILS (L1210 leukemia [2]; [41]): 12%
- MST (L1210 leukemia [2]; [41]): 9.0 days
- Wt. Change (L1210 leukemia [2]; [41]): -5.8 g
- ILS (L1210 leukemia [2]; [42]): -3%
- MST (L1210 leukemia [2]; [42]): 8.0 days
- Wt. Change (L1210 leukemia [2]; [42]): -4.5 g
- Wt. Change (L1210 leukemia [2]; 138.9 mg/kg IP days 1-9, Expt. 1): -5.6 g
- Wt. Change (L1210 leukemia [2]; 138.9 mg/kg IP days 1-9, Expt. 3): -5.5 g
- solubility in water [3]: virtually insoluble in water
- inhibitory activity against certain experimental tumor systems [4]: strong inhibitory activity
